Assay results published in US8835462B2, “Macrocyclic picolinamides as fungicides” (Dow AgroSciences LLC, priority 2012, dated 2014).
Read-outs that look alike come from different tables or passages of the source.

Assays:
Type in all cases: in vivo
Puccinia triticina = assay: Wheat brown rust (PUCCRT) fungicidal activity on wheat seedlings
Procedure, shortened: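 Compounds in acetone diluted with nine volumes water containing 110 ppm Triton X-100, sprayed to run-off on first-leaf Yuma wheat seedlings inoculated with P. triticina spores before or after treatment. Dark dew room 22° C, 100% RH overnight, then greenhouse 24° C; percent disease control from severity (0-100%) relative to untreated plants.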

Venturia inaequalis = assay: Apple scab (VENTIN) fungicidal activity; details: 24 h, 1 Day Protectant, read-out: Disease Control VENTIN 1DP
Description: Technical grades of materials were dissolved in acetone, which were then mixed with nine volumes of water containing 110 ppm Triton X-100. The fungicide solutions were applied onto wheat seedlings using an automated booth sprayer to run-off. All sprayed plants were allowed to air dry prior to further handling. Wheat plants (variety Yuma) were grown from seed in a greenhouse in 50% mineral soil/50% soil-less Metro mix until the first leaf was fully emerged, with 7-10 seedlings per pot. These plants were inoculated with an aqueous spore suspension of Septoria tritici either prior to or after fungicide treatments. After inoculation the plants were kept in 100% relative humidity (one day in a dark dew chamber followed by two to three days in a lighted dew chamber at 20° C.) to permit spores to germinate and infect the leaf. The plants were then transferred to a greenhouse set at 20° C. for disease to develop. When disease symptoms were fully expressed on the 1st leaves of untreated plants, infection levels were assessed on a scale of 0 to 100 percent disease severity. Percent disease control was calculated using the ratio of disease severity on treated plants relative to untreated plants. Evaluation of Fungicidal Activity: Apple Scab (Venturia Inaequalis; Bayer Code […]) Apple seedlings (variety McIntosh) were grown in soil-less Metro mix, with one plant per pot. Seedlings with two expanding young leaves at the top (older leaves at bottom of the plants were trimmed) were used in the test. Plants were inoculated with a spore suspension of Venturia inaequalis 24 hr after fungicide treatment and kept in a 22° C. dew chamber with 100% RH for 48 hr, and then moved to a greenhouse set at 20° C. for disease to develop. Fungicide formulation, application and disease assessment on the sprayed leaves followed the procedures as described in the Example A.

[1] = test system: Magnaporthe grisea; Anamorph: Pyricularia oryzae; assay: whole plant or invertebrate; details: 24 h, read-out: Disease Control PYRIOR 1DP
Alternaria solani = assay: Tomato early blight (ALTESO) fungicidal activity; details: 24 h, 1 Day Protectant, read-out: Disease Control ALTESO 1DP
Description: Technical grades of materials were dissolved in acetone, which were then mixed with nine volumes of water containing 110 ppm Triton X-100. The fungicide solutions were applied onto wheat seedlings using an automated booth sprayer to run-off. All sprayed plants were allowed to air dry prior to further handling. Wheat plants (variety Yuma) were grown from seed in a greenhouse in 50% mineral soil/50% soil-less Metro mix until the first leaf was fully emerged, with 7-10 seedlings per pot. These plants were inoculated with an aqueous spore suspension of Septoria tritici either prior to or after fungicide treatments. After inoculation the plants were kept in 100% relative humidity (one day in a dark dew chamber followed by two to three days in a lighted dew chamber at 20° C.) to permit spores to germinate and infect the leaf. The plants were then transferred to a greenhouse set at 20° C. for disease to develop. When disease symptoms were fully expressed on the 1st leaves of untreated plants, infection levels were assessed on a scale of 0 to 100 percent disease severity. Percent disease control was calculated using the ratio of disease severity on treated plants relative to untreated plants. Evaluation of Fungicidal Activity: Tomato Early Blight (Alternaria Solani; Bayer Code […]) Tomato plants (variety Outdoor girl) were propagated in soil-less Metro mix, with each pot having one plant, and used when 12 to 14 days old. Test plants were inoculated with an aqueous spore suspension of Alternaria solani 24 hr after fungicide treatments. After inoculation the plants were kept in 100% relative humidity (one day in a dark dew chamber followed by two to three days in a lighted dew chamber at 20° C.) to permit spores to germinate and infect the leaf. The plants were then transferred to a growth room at 22° C. for disease to develop. Fungicide formulation, application and disease assessment on the sprayed leaves followed the procedures as described in the Example A.

[2] = 24 h, 1 Day Protectant, read-out: Disease Control PUCCRT 1 DP
[3] = 72 h, 3 Day Curative, read-out: Disease Control PUCCRT 3 DC

Row | SMILES | pest or weed control at 100 ppm (Puccinia triticina; [2]) [%] | pest or weed control at 100 ppm (Puccinia triticina; [3]) [%] | pest or weed control at 100 ppm (Venturia inaequalis) [%] | pest or weed control at 100 ppm [1] [%] | pest or weed control at 100 ppm (Alternaria solani) [%]
1 | COc1ccnc(C(=O)N[C@H]2COC[C@H](Cc3ccccc3)[C@@H](OCC(F)F)[C@H](C)OC2=O)c1OCOC(C)=O [Compound 44] | 80 to 100 | 80 to 100 | 0 to 80 | 80 to 100 | 0 to 80
2 | COc1ccnc(C(=O)N[C@H]2COC[C@H](Cc3ccccc3)[C@@H](OCCC(C)OC)[C@H](C)OC2=O)c1OCOC(C)=O (some centres unmarked) [Compound 46] | 80 to 100 | 80 to 100 | 80 to 100 | 80 to 100 | 0 to 80
3 | COc1ccnc(C(=O)N[C@H]2COC[C@H](Cc3ccccc3)[C@@H](OC3CCCC3)[C@H](C)OC2=O)c1OC(C)=O [Compound 107] | 80 to 100 | 80 to 100 | 0 to 80 | 80 to 100 | 0 to 80
4 | COc1ccnc(C(=O)N[C@H]2COC[C@H](Cc3ccccc3)[C@@H](OC3CCCC3)[C@H](C)OC2=O)c1OCOC(=O)C(C)C [Compound 108] | 80 to 100 | 80 to 100 | 80 to 100 | 80 to 100 | 80 to 100
